“And” between values parts separate entries of the source, which are not always exact repeats. Equal entries are not always repeated. Where two headings read alike, the source gives them in different places. Where no end group is shown, it is not given here.
Assays:
CD4 = CD4 (Homo sapiens, UniProt P01730); test: Binding of peptide monomer to CD4 in the presence of detergent
[1] = system: antisera from HIV infected individuals; test: ELISA of serum samples on plates coated with peptide or peptomer; format: binding; conditions: for ELISA Titer of serum sample: 1 μg/well coated
Experimental: Standard ELISA methods were used in these experiments. Briefly, 96-well polystyrene plates were coated with 1 μg/well of peptide or peptomer. The peptide found 9/27 (33%); the peptomer found 26/27 (96%); 1/10 (10%) false positive with the peptomer.

[2] = Circular dichroism spectroscopy, degree of α-helicity; format: physicochemical; conditions: for helix content: circular dichroism, analysis according to Provencher et al.
Source text: Circular dichroism spectroscopy was used to determine the degree of α-helicity of the peptomer and the peptide from which it was derived. […] In this case, the peptide contains 8±7% helix, while the peptomer has 31±1%. This establishes that by polymerizing the peptide, the peptomer achieves a conformation that is not favored for the free peptide monomer.
Using circular dichroism spectroscopy as described in Example 5, above, the degree of α-helicity of the peptide (419-436) with and without detergent was determined.

[3] = Solubility of the peptomer; format: physicochemical
Experimental: b) Polymerization of the peptide monomers to form peptomer (419-436) The peptide polymers were prepared by dissolving 5 mg of the N-bromoacetyl cysteine-containing peptides in 1.0 ml of deoxygenated 0.5M NaHCO3 or 0.1M NaHPO4, pH 7.0-7.5 buffer and stirring these solutions under N2 for 5-12 hours at 25° C. […] They are soluble in 10% acetic acid at less than about 1mg/ml.
The peptomer used in the experiments described in this Example was prepared without a lyophilization step.

[4] = biological target: recombinant soluble gp120 (Human immunodeficiency virus type 1 group M subtype B, UniProt P05877); conditions: rabbit antibodies, dot blot assay
Experimental: The dot blot assays were carried as follows. Peptomers in H2 O were spotted onto nitrocellulose paper. The nitrocellulose was then blocked with 3% bovine serum albumin in tris-buffered saline (TBS) pH 7.4 for 1 hour, then treated with 1 μg/ml biotinylated rsCD4 (Genentech, South San Francisco, Calif.) for 3 hours in a buffer containing TBS and 0.1% Tween 20. The nitrocellulose was then treated with a 1:750 dilution of streptavidin-horseradish peroxidase conjugate and developed.

Rhesus monkeys = test: Immune response of Rhesus monkeys: ELISA titer against the peptomer; format: in vivo; conditions: for ELISA titer 0 weeks: before peptomer immunization
Experimental: (§1) This experiment was done with Rhesus monkeys that had been primed with various attenuated poxvirus recombinant carrying HIV-1MN genes and boosted with envelope and gag proteins formulated in alum. Six monkeys were used for the studies. Two of the monkeys were immunized with peptomer(419-436) suspended in phosphate-buffered saline (PBS at pH 7.4 without adjuvant) and four were immunized with peptomer(419-436) in alum. Each animal was injected with a single 1 ml bolus containing 1 mg peptomer(419-436) in a subscapular location in order that the immunogen be administered in a lymph node-rich locus. Three weeks after the initial injection, the monkeys were injected again and the final evaluation was performed after an additional three weeks (a total of six weeks from the initial injection).
Three weeks following the initial administration of the peptomer(419-436) an ELISA titer against the peptomer of 1:3,200 was detected for the monkeys immunized with peptomer in alum.

HIV-1 (MN) = HIV-1 (MN) in vitro neutralization by sera of immunized Rhesus monkeys; format: cell-based; conditions: 1 mg in PBS at 0 and 3 weeks, reciprocal serum dilution giving 40% neutralization
Experimental: as §1
The neutralization titers are given as the reciprocal of the dilution of
serum that gives a 40% neutralization of HIV1 (MN) infection in vitro. A
negative value means neutralization was not observed at the lowest serum
dilution tested (1:25). The MN isolate was used because this was the
strain used to design the peptomer.

gp120 binding to CD4 = biological target: T1, gp120 binding to CD4 (Homo sapiens, UniProt P01730); test: ELISA: inhibition of gp120 binding to CD4 by peptomer; set-up: species or system HIV-1; conditions: 500 ng/well recombinant soluble gp120 coated, biotinylated CD4, peptomer prepared without lyophilization
T1 construct: recombinant soluble CD4 (Genentech); purchased Genentech
Experimental: C. Inhibition of gp120 binding to CD4 by peptomer(419-436). The ELISA procedure was the same as above except that 500 ng/well of recombinant soluble gp120 was used to coat each well instead of peptomer. Poly-scrambled peptomer is a peptomer that contains all the amino acids as in peptomer(419-436) in a scrambled order.

MN isolate of HIV1 = test: In vitro neutralization assay with rabbit antisera; format: cell-based; conditions: rabbit antibodies, Freund's adjuvant, HIV-1 MN in vitro
Experimental: HIV-1 MN isolate was neutralized at a dilution of 1:70. Neutralization assays were carried as described in Robert-Guroff, et al. in Techniques in HIV Research Aldovini and Walker eds. pp. 179-185 (Aldrich 1990).
gp120 Reactivity was in the dot blot assay. Neutralization was with an in
vitro neutralization assay using the MN isolate of HIV1.

[5] = system: binding of biotinylated CD4 to peptomer(419-436); conditions: 10 μg/200 μl peptomer coated; 1 μg/well biotinylated CD4
[6] = diagnosis Hodgkins / lymphoma (control)
[7] = diagnosis Kidney Graft (control)

With KIKQIINMWQEVGKAMYA [Peptide 419-436] the “ability of the peptide monomer to bind CD4” value (CD4) was “enhanced ability”, the “ELISA Titer of serum sample” value [1, 6] was 0 and the “ELISA Titer of serum sample” value [1, 7] was 0. The “ELISA Titer of serum sample” value ([1]; diagnosis NORMAL (control)) was 0, the “ELISA Titer of serum sample” value ([1]; diagnosis uveitis (control)) was 0 and the “HIV-1(+) serum samples found” value ([1]; of 27 HIV+/AIDS sera) was 33%. For the same substance, the “HIV-1(+) serum samples found” value ([1]; positive of 27 HIV+/AIDS sera) was 9/27, the “α-helix by circular dichroism” value ([2]; PBS with 0.03% Brij 35, shoulder at 220 λ) was “presence of an α-helix” and the helix content [2] was 8±7%.

For “Peptomer (419-436): polymer of N-bromoacetyl cysteine-containing peptide monomers KIKQIINMWQEVGKAMYA, residues 419 to 436 of HIV-1 gp120 (also: polymerized via N-bromoacetyl cysteine, site not given here)”, the “solubility in 10% acetic acid” value ([3]; 10% acetic acid) was “less than 1 mg/ml”, the “solubility in buffered saline solutions” value ([3]; buffered saline solutions) was “not soluble” and the “solubility in aqueous solutions” value ([3]; peptomer prepared without a lyophilization step) was “increased solubility”. For the same substance, the solubility in water ([3]; water) was “only partially soluble”, the “ELISA Titer of serum sample” value [1, 6] was 0 and the “ELISA Titer of serum sample” value [1, 7] was 0. The “ELISA Titer of serum sample” value ([1]; diagnosis NORMAL (control)) was 0, the false positive ([1]; of 10 non-HIV sera) was 10% and the “HIV-1(+) serum samples found” value ([1]; of 27 HIV+/AIDS sera) was 96%. The false positive ([1]; positive of 10 non-HIV sera) was 1/10, the “HIV-1(+) serum samples found” value ([1]; positive of 27 HIV+/AIDS sera) was 26/27 and the “gp120 Reactivity” value ([4]; Freund's adjuvant) was 0. For the same substance, the “gp120 Reactivity” value ([4]; Freund's adjuvant, listed as peptomer (419-436)) was “not able to recognize gp120”, the “gp120 Reactivity” value ([4]; Ribi's adjuvant) was “reacted well” and the “ELISA titer 0 weeks” value (Rhesus monkeys; Rhesus monkeys, PBS without adjuvant) was 0. For the same substance, the “ELISA titer 0 weeks” value (Rhesus monkeys; Rhesus monkeys, alum group) was 0, the “ELISA titer against the peptomer, three weeks after initial administration” value (Rhesus monkeys; Rhesus monkeys, peptomer in PBS) was “No titer was detected” and the “Immunogenicity in Rhesus monkeys” value (Rhesus monkeys; monkeys previously immunized with various HIV-related immunogens including gp160/120) was “immunogenic”. The “HIV-1 (MN) NEUTRALIZATION 6 weeks” value (HIV-1 (MN)) was 40 and 50, the “inhibition of gp120 binding to CD4” value (gp120 binding to CD4; listed as peptomer) was “enhanced ability to block binding” and the “inhibition of gp120 binding to CD4” value (gp120 binding to CD4; listed as peptomer(419-436)) was “inhibition”. The Neutralization (MN isolate of HIV1) was “None”, the Neutralization (MN isolate of HIV1; listed as peptomer (419-436)) was “not able to recognize gp120 or to neutralize HIV-1 infection in vitro” and the helix content [2] was 31±1%.

With “recombinant soluble gp120: recombinant soluble HIV-1 envelope glycoprotein gp120” the “inhibition of biotinylated CD4 binding to peptomer(419-436)” value [5] was “inhibition”.

From US5750332A, “Peptomers with enhanced immunogenicity” (priority 1995, dated 1998)
